Source: patent US9872875B2, “Component and method for treating viral disease” (Institut Pasteur of Shanghai, Chinese Academy of Sciences, priority 2012, dated 2018)
Read-outs that look alike come from different tables or passages of the source.

How the values were obtained:
[1] = test system: EV71 clinical isolate (EV71 FY 573); assay: EV71 clinical isolate replication in RD cells, viral load by quantitative RT-PCR; assay type: cell-based, Enterovirus 71
Procedure: RD cells were infected with EV71 clinical isolate (EV71 FY 573) in different E02 concentrations, at the MOI (multiplicity of infection) of 0.1. At 46 h post infection, viral RNA in culture supernatant was extracted, and the relative EV71 viral load was determined by quantitative RT-PCR. Procedures are detailed as follows:
(1) Cell seeding: 24 h prior to infection, RD cells were seeded in 96-well cell culture plates, 5×10^4 cells per well.
(2) Infection: • a. Virus pre-incubated with drug: virus stock solution was diluted to 5×10^4 TCID50/ml with DMEM and dispensed to 96-well plates at 100 μl per well, and 11 μl of E02 dissolved in DMEM at corresponding concentration or DMEM was added, and incubated at 37° C. for 1 h; • b. Cells pre-incubated with drug: cell culture medium was removed from 96-well plates, each well was added 100 μl of DMEM, then added 11 μl of E02 solution at corresponding concentration or DMEM, and incubated at 37° C. for 1 h; • c. After 1 h incubation, drug was discarded from cell culture plates, 111 μl of virus pre-incubated with drug was transferred to cell culture plates, and incubated at 37° C. for 1 h; • d. After incubation, the supernatant was discarded, cells were washed twice with 50 μl of DMEM, each well was added 180 μl of DMEM containing 2% FBS, 20 μl of E02 solution at corresponding concentration or DMEM. Cell culture plates were placed in 37° C., 5% (v/v) carbon dioxide incubator for incubation.
(3) Harvesting virus and RNA extraction: after infection, cells were cultured for 46 h, 140 μl of supernatant was transferred to 96-deep well plates, viral RNA extraction was performed using viral RNA extraction kit (QIAGEN QIAamp Viral RNA Mini Kit, cat #52906) according to standard operating procedures of the kit.
(4) Viral load measurements: EV71 5′UTR gene was detected using ABI Taqman one-step RT-PCR kit (ABI TaqMan® One-Step RT-PCR, cat #4309169) of ABI 7900HT 384-well plates PCR system. EV71 5′UTR quantitative RT-PCR thermal cycling program (Taqman);
(5) PCR CT values were converted to viral load using PCR standard curves (standard curves were obtained by CT values determined by performing RT-PCR on RNA extracted from viruses serially diluted with defined titers at 10-fold).

RD cells = assay: Cytotoxicity to RD cells (Celltiter Glo); assay type: cell-based
Procedure: Cytotoxicity to RD cells at different E02 concentrations was measured using Celltitr Glo reagents as follows:
(1) Cells seeding: 24 h prior to testing, RD cells were seeded in 96-well cell culture plates at 5×10^4 per well;
(2) Cells incubated with E02: medium was removed from cell culture plates, 180 μl of DMEM containing 2% FBS was added, and then added 20 μl of DMEM solution with corresponding concentration of E02, placed in 37° C., 5% CO2 incubator for incubation;
(3) After cultured for 46 h, cellular ATP levels were measured using the PROMEGA Celltitr Glo reagents according to reagent instructions.
PPADS is an E02 analog (Khakh, Burnstock et al., 2001; Burnstock 2004; Coddou, Yan et al. 2011) and has a similar inhibitory effect on P2X subtypes to that of E02. RD cells were infected with EV71 clinical isolate FY 573 at different PPADS concentrations to determine the inhibitory effect of PPADS on EV71 replication. Detailed procedure is the same as that in “1” of Example 1. In addition, cytotoxicity to RD cells at each concentration of PPADS was determined. Detailed procedure is the same as that in “1” of Example 6.

P2X1 receptor = target: T1, P2X1 receptor (Homo sapiens, UniProt P51575); conditions: cited from earlier work
T1 sequence (P51575 1-399): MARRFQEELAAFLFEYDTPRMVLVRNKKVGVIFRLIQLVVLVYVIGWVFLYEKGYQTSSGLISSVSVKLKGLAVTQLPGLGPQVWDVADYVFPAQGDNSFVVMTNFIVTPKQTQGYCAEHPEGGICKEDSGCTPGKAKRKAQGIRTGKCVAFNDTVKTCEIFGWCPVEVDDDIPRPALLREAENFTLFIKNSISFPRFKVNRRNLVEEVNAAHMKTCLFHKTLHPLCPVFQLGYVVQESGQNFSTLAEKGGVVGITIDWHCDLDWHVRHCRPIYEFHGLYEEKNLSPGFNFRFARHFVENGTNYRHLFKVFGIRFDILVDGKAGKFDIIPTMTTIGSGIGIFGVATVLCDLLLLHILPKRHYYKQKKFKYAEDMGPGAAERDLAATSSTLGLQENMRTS

P2X2 receptor = target: T2, P2X2 receptor (Homo sapiens, UniProt Q9UBL9); conditions: cited from earlier work
T2 sequence (Q9UBL9 1-471): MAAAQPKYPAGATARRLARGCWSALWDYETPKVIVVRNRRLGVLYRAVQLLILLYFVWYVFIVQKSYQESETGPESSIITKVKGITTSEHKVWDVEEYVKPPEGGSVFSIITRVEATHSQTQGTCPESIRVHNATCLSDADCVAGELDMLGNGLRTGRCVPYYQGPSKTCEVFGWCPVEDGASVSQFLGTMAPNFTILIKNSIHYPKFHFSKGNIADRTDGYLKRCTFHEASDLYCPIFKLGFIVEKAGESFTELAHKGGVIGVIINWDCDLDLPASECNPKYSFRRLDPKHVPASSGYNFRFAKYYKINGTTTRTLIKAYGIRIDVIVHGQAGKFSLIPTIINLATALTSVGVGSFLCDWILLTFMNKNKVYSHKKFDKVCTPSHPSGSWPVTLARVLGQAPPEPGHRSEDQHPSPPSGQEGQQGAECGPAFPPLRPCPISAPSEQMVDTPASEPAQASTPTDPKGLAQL

P2X6 receptor = P2X6 receptor (Homo sapiens, UniProt O15547); set-up: key: −: no activity; +: activating concentration >10 μM; ++: activating concentration 1~10 μM; +++: activating concentration <1 μM; conditions: Table 8, antagonists; cited from earlier work
P2X6 receptor, sequence (O15547 whole entry): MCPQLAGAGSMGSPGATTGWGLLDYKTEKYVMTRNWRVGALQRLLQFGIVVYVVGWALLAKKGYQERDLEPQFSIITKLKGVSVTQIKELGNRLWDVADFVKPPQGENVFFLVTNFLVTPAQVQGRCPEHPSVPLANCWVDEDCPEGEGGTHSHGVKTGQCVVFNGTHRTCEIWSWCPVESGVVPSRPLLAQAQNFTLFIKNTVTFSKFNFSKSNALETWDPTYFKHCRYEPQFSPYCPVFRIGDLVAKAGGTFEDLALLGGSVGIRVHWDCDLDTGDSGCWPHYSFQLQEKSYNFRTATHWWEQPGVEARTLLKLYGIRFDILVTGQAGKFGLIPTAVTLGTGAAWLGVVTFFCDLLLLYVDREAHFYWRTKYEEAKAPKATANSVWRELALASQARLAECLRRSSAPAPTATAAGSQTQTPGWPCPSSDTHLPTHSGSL

SMILES: Cc1nc(N=Nc2ccc(S(=O)(=O)O)cc2S(=O)(=O)O)c(COP(=O)(O)O)c(C=O)c1O [PPADS, pyridoxal-phosphate-6-azophenyl-2′, 4′-disulphonic acid]
- EC50 ([1]; EV71 FY 573, MOI 0.1, 46 h, viral RNA in supernatant, read-out: EC50 (50% effective concentration) for inhibiting EV71 replication in RD cells): 18.9 µM
- concentrations not cytotoxic to RD cells (RD cells; PPADS): lower than 64 μM
- P2X receptors 1 (P2X1 receptor; Table 8, antagonists): ++ (++: inhibitory concentration = 10~300 nM)
- P2X receptors 2 (P2X2 receptor; Table 8, antagonists): ++ (++: inhibitory concentration = 10~300 nM)
- P2X receptors 6 (P2X6 receptor): + (+: inhibitory concentration >300 nM)

SMILES: Cc1ccc(C(=O)Nc2ccc(S(=O)(=O)O)c3cc(S(=O)(=O)O)cc(S(=O)(=O)O)c23)cc1NC(=O)c1cccc(NC(=O)Nc2cccc(C(=O)Nc3cc(C(=O)Nc4ccc(S(=O)(=O)O)c5cc(S(=O)(=O)O)cc(S(=O)(=O)O)c45)ccc3C)c2)c1 [E02, Suramin Sodium]
- concentration at which EV71 replication is reduced 10-fold ([1]; EV71 FY 573, RD cells, 46 h): 3.44 μM
- concentration at which EV71 replication is reduced 100-fold ([1]; EV71 FY 573, RD cells, 46 h): 5.19 µM
- concentration at which EV71 replication is reduced 1,000-fold ([1]; EV71 FY 573, RD cells, 46 h): 6.45 µM
- concentration at which EV71 replication is reduced 10,000-fold ([1]; EV71 FY 573, RD cells, 46 h): 7.63 µM
- EC50 ([1]; Enterovirus A, EV71, RD, 46 h, read-out: EC50 (50% effective concentration) for inhibiting EV71 replication in RD cells): 6.93 µM
- EC50 ([1]; Enterovirus A, EV71, RD cells, summary over RT-PCR, TCID50 and PFU tests, read-out: EC50 that inhibits EV71 clinical isolate (summary of Examples 1-3)): < 6.93 µM
- cytotoxicity to RD cells (RD cells; 1×10^−6 to 1×10^4 μM of E02, 46 h, cellular ATP): no cytotoxicity
- P2X receptors 1 (P2X1 receptor): ++ (key: −: no activity; +: inhibitory concentration >300 nM; ++: inhibitory concentration = 10~300 nM; +++: inhibitory concentration <10 nM)
- P2X receptors 2 (P2X2 receptor): + (key: −: no activity; +: inhibitory concentration >300 nM; ++: inhibitory concentration = 10~300 nM; +++: inhibitory concentration <10 nM)
- P2X receptors 6 (P2X6 receptor): −
